PMC8772704, “Quantification of Fosfomycin in Combination with Nine Antibiotics in Human Plasma and Cation-Adjusted Mueller-Hinton II Broth via LCMS” (Antibiotics, 2022)

Assays:
[1] = Plasma concentrations in four patients on fosfomycin-based combination therapy (pilot clinical feasibility study, LCMS/MS)
Procedure: For 20 µL of plasma/CAMHB sample, 20 µL of water and 20 µL of stable-isotope as internal standard (IS) were added and vortexed. 180 µL of acetonitrile was added for protein precipitation and subsequently removed by centrifugation (12,700 rpm for 10 min at 25 °C). Finally, 15 µL of the supernatant was diluted with 225 µL formic acid in water (0.1% v/v), and 10 µL was injected for LCMS/MS analysis. For the calibration curve and QCs, 20 µL of the corresponding antibiotic standard working solution was added instead of water.
Samples were analyzed using a Nexera X2 LCMS 8060 system (Shimadzu, Kyoto, Japan). […] Electrospray ionization employing positive and negative ion mode with multiple reaction monitoring was used for analyte quantification (Table S1). Data were acquired and analyzed using Shimadzu LabSolutions (Version 5.97).
The assay method described in this paper has been applied to a pilot clinical feasibility study to evaluate the proportion of patients with sub-optimal β-lactam levels and the need for dose adjustments in infected patients with unpredictable pharmacokinetics. We described a case series of four patients where they received in vitro guided antibiotic combination therapy using a fosfomycin-based combination regimen to treat a carbapenem-resistant Gram-negative bacteria infection. These four patients were recruited into the BLAST-2 study as the combination regimen contains a β-lactam antibiotic. In this case series, two were undergoing intermittent hemodialysis, and two patients had normal renal function. In the two patients on hemodialysis, they were on a dosing regimen of 8 g of fosfomycin on dialysis days (3 g at least 4 h before dialysis session and 5 g after completion of dialysis). The remaining two patients received 8 g of fosfomycin given every 8 h as a prolonged infusion.
Blood samples (2–3 mL from an indwelling catheter) were collected four times over a dosing interval of the β-lactam dosing regimen and centrifuged (10 min at 3000 rpm) (Eppendorf 5425R). The resultant plasma was stored (within 15 min of collection) at −80 °C until assay.

[2] = Long-term storage stability of antibiotics in combination with fosfomycin spiked in plasma/CAMHB (−30 °C, −80 °C); type: physicochemical; settings: for Mean accuracy (%), Table S15 / Mean accuracy (%), Table S17 / Mean accuracy (%), Table S16 / Mean accuracy (%), Table S18: CAMHB; for Mean accuracy (%), Table S15 / Mean accuracy (%), Table S17 / Mean accuracy (%), Table S16 / Mean accuracy (%), Table S18 / Mean accuracy (%), Table S11 / Mean accuracy (%), Table S13 / Mean accuracy (%), Table S12 / Mean accuracy (%), Table S14: combination with fosfomycin; for Mean accuracy (%), Table S15 / Mean accuracy (%), Table S11: 2 weeks at -30 °C; for Mean accuracy (%), Table S17 / Mean accuracy (%), Table S13: 2 weeks at -80 °C; for Mean accuracy (%), Table S16 / Mean accuracy (%), Table S12: 4 weeks at -30 °C; for Mean accuracy (%), Table S18 / Mean accuracy (%), Table S14: 4 weeks at -80 °C; for Mean accuracy (%), Table S11 / Mean accuracy (%), Table S13 / Mean accuracy (%), Table S12 / Mean accuracy (%), Table S14: plasma; for Stability verdict (within ±15% of nominal): CAMHB samples stored at −30 °C, 4 weeks
Procedure: (§1) The stability of fosfomycin in combination with other antibiotics in plasma/CAMHB was evaluated under various operational conditions. Spiked plasma/CAMHB samples were evaluated at 7 h and 15 h in the autosampler at 4 °C. Long-term stability was evaluated up to 4 weeks of antibiotic-spiked plasma/CAMHB samples at LQC, MQC, and HQC concentrations stored at −30 °C and −80 °C.

[3] = 32-day stability of stock solutions stored at −80 °C; type: physicochemical; settings: stock solution stored at -80 °C; peak area Day 32 vs Day 1
Procedure: Stability of stock solutions
All stock solutions of antibiotics and their corresponding stable-isotope variants were measured prior to cold storage at -80 °C and tested at 32 days later.
Stability was determined by comparing the peak area of each drug between its Day 1 and Day 32 measurement. Acceptable criteria for stability was met if the […]

[4] = Autosampler stability at 4 °C of extracted antibiotic-spiked plasma/CAMHB samples; settings: for Mean accuracy (%), Table S8 / Mean accuracy (%), Table S10: CAMHB extracted samples; for Mean accuracy (%), Table S8 / Mean accuracy (%), Table S7: 7 h autosampler 4 °C; for Mean accuracy (%), Table S10 / Mean accuracy (%), Table S9: 15 h autosampler 4 °C; for Mean accuracy (%), Table S7 / Mean accuracy (%), Table S9: plasma extracted samples
Procedure: as §1

[5] = HQC: nominal mg/L CAZ 150, FEP 200, PIP 250, ATM 300, MEM 200, DOR 175, LVX 30, CEFT 250, TZB 87.5, TGC 20, AVI 30, FOF 1000
[6] = LQC: nominal 1 mg/L (levofloxacin, avibactam 0.5; fosfomycin 10)
[7] = MQC: nominal mg/L CAZ 75, FEP 100, PIP 150, ATM 150, MEM 100, DOR 87.5, LVX 15, CEFT 125, TZB 43.75, TGC 10, AVI 15, FOF 500

Compound | Mean accuracy (%), Table S17 ([2]; HQC (nominal as E15)) [%] | Mean accuracy (%), Table S17 ([2]; LQC (nominal as E13)) [%] | Mean accuracy (%), Table S17 ([2]; MQC (nominal as E14)) [%] | Mean accuracy (%), Table S16 ([2]; HQC (nominal as E15)) [%] | Mean accuracy (%), Table S16 ([2]; LQC (nominal as E13)) [%] | Mean accuracy (%), Table S16 ([2]; MQC (nominal as E14)) [%] | Mean accuracy (%), Table S18 ([2]; HQC (nominal as E15)) [%] | Mean accuracy (%), Table S18 ([2]; LQC (nominal as E13)) [%] | Mean accuracy (%), Table S18 ([2]; MQC (nominal as E14)) [%] | Mean accuracy (%), Table S11 ([2]; HQC (nominal as E15)) [%] | Mean accuracy (%), Table S11 ([2]; LQC (nominal as E13)) [%] | Mean accuracy (%), Table S11 ([2]; MQC (nominal as E14)) [%] | Mean accuracy (%), Table S13 ([2]; HQC (nominal as E15)) [%] | Mean accuracy (%), Table S13 ([2]; LQC (nominal as E13)) [%] | Mean accuracy (%), Table S13 ([2]; MQC (nominal as E14)) [%] | Mean accuracy (%), Table S12 ([2]; HQC (nominal as E15)) [%] | Mean accuracy (%), Table S12 ([2]; LQC (nominal as E13)) [%] | Mean accuracy (%), Table S12 ([2]; MQC (nominal as E14)) [%] | Mean accuracy (%), Table S14 ([2]; HQC (nominal as E15)) [%] | Mean accuracy (%), Table S14 ([2]; LQC (nominal as E13)) [%] | also measured
C[C@@H]1O[C@@H]1P(=O)(O)O [Fosfomycin, fosfomycin] | 96.3 | 110.6 | 99.5 | 94.6 | 103.6 | 95.4 | 101.8 | 104.7 | 98.2 | 98.4 | 102.2 | 92.1 | 95.6 | 101.8 | 94.6 | 94.0 | 104.5 | 92.4 | 97.7 | 100.8 | Mean total plasma concentration (range) ([1]; four patients, samples measured in triplicates): 11.3 to 746.9 mg/L; Mean accuracy (%), Table S15 ([2]; HQC (nominal as E15)): 98.5%; Mean accuracy (%), Table S15 ([2]; LQC (nominal as E13)): 103.1%; Mean accuracy (%), Table S15 ([2]; MQC (nominal as E14)): 94.7%; Mean accuracy (%), Table S14 ([2]; MQC (nominal as E14)): 90.6%; 32 Day Stability (%) [3]: 95.80%; Mean accuracy (%), Table S8 ([4]; HQC (nominal as E15)): 96.0%; Mean accuracy (%), Table S8 ([4]; LQC (nominal as E13)): 107.1%; Mean accuracy (%), Table S8 ([4]; MQC (nominal as E14)): 95.9%; Mean accuracy (%), Table S10 ([4]; HQC (nominal as E15)): 95.6%; Mean accuracy (%), Table S10 ([4]; LQC (nominal as E13)): 107.4%; Mean accuracy (%), Table S10 ([4]; MQC (nominal as E14)): 94.8%; Mean accuracy (%), Table S7 [4, 5]: 102.9%; Mean accuracy (%), Table S7 [4, 6]: 104.5%; Mean accuracy (%), Table S7 [4, 7]: 101.0%; Mean accuracy (%), Table S9 ([4]; HQC (nominal as E15)): 101.4%; Mean accuracy (%), Table S9 ([4]; LQC (nominal as E13)): 106.3%; Mean accuracy (%), Table S9 ([4]; MQC (nominal as E14)): 101.8%
C[C@H]1[C@H](NC(=O)/C(=N\OC(C)(C)C(=O)O)c2csc(N)n2)C(=O)N1S(=O)(=O)O [Aztreonam, aztreonam] | 100.2 | 101.3 | 95.1 | 92.5 | 66.5 | 91.8 | 98.4 | 109.7 | 96.0 | 97.3 | 103.1 | 90.2 | 97.2 | 87.6 | 94.5 | 96.1 | 106.4 | 96.2 | 97.8 | 104.2 | Mean total plasma concentration (range) ([1]; Patient 002, intermittent hemodialysis, aztreonam 2 g every 12 h as a 2-h infusion): 8.8 to 86.2 mg/L; Stability verdict (within ±15% of nominal) [2]: instability; Mean accuracy (%), Table S15 ([2]; HQC (nominal as E15)): 102.6%; Mean accuracy (%), Table S15 ([2]; LQC (nominal as E13)): 102.2%; Mean accuracy (%), Table S15 ([2]; MQC (nominal as E14)): 92.5%; Mean accuracy (%), Table S14 ([2]; MQC (nominal as E14)): 101.4%; 32 Day Stability (%) [3]: 99.75%; Mean accuracy (%), Table S8 ([4]; HQC (nominal as E15)): 99.3%; Mean accuracy (%), Table S8 ([4]; LQC (nominal as E13)): 109.7%; Mean accuracy (%), Table S8 ([4]; MQC (nominal as E14)): 107.5%; Mean accuracy (%), Table S10 ([4]; HQC (nominal as E15)): 104.4%; Mean accuracy (%), Table S10 ([4]; LQC (nominal as E13)): 103.7%; Mean accuracy (%), Table S10 ([4]; MQC (nominal as E14)): 104.7%; Mean accuracy (%), Table S7 [4, 5]: 109.1%; Mean accuracy (%), Table S7 [4, 6]: 100.8%; Mean accuracy (%), Table S7 [4, 7]: 101.2%; Mean accuracy (%), Table S9 ([4]; HQC (nominal as E15)): 107.9%; Mean accuracy (%), Table S9 ([4]; LQC (nominal as E13)): 105.8%; Mean accuracy (%), Table S9 ([4]; MQC (nominal as E14)): 102.4%
C[C@@H](O)[C@H]1C(=O)N2C(C(=O)O)=C(S[C@@H]3CN[C@H](C(=O)N(C)C)C3)[C@H](C)[C@H]12 [Meropenem, meropenem] | 99.6 | 104.3 | 97.3 | 66.1 | 60.1 | 63.5 | 97.4 | 97.9 | 95.4 | 93.3 | 86.6 | 89.7 | 105.4 | 104.2 | 95.0 | 91.8 | 106.1 | 93.8 | 96.1 | 101.8 | Mean total plasma concentration (range) ([1]; Patient 004, meropenem 2 g every 8 h as a 3-h infusion): 6.7 to 23.0 mg/L; Stability verdict (within ±15% of nominal) [2]: instability; Mean accuracy (%), Table S14 ([2]; MQC (nominal as E14)): 95.2%; 32 Day Stability (%) [3]: 100.48%; Mean accuracy (%), Table S8 ([4]; HQC (nominal as E15)): 107.7%; Mean accuracy (%), Table S8 ([4]; LQC (nominal as E13)): 104.0%; Mean accuracy (%), Table S8 ([4]; MQC (nominal as E14)): 102.6%; Mean accuracy (%), Table S10 ([4]; HQC (nominal as E15)): 106.9%; Mean accuracy (%), Table S10 ([4]; LQC (nominal as E13)): 107.7%; Mean accuracy (%), Table S10 ([4]; MQC (nominal as E14)): 100.8%; Mean accuracy (%), Table S7 [4, 5]: 99.6%; Mean accuracy (%), Table S7 [4, 6]: 110.0%; Mean accuracy (%), Table S7 [4, 7]: 95.5%; Mean accuracy (%), Table S9 ([4]; HQC (nominal as E15)): 97.9%; Mean accuracy (%), Table S9 ([4]; LQC (nominal as E13)): 109.1%; Mean accuracy (%), Table S9 ([4]; MQC (nominal as E14)): 98.9%
